From patent publication US20230167073A1 (Teijin Pharma Limited, priority 2020, published 2023)

Molecular target: T1, Human TRPC6 (Homo sapiens, UniProt Q9Y210)
T1 construct: expressed in transfected cells
T1 sequence (Q9Y210 1-931): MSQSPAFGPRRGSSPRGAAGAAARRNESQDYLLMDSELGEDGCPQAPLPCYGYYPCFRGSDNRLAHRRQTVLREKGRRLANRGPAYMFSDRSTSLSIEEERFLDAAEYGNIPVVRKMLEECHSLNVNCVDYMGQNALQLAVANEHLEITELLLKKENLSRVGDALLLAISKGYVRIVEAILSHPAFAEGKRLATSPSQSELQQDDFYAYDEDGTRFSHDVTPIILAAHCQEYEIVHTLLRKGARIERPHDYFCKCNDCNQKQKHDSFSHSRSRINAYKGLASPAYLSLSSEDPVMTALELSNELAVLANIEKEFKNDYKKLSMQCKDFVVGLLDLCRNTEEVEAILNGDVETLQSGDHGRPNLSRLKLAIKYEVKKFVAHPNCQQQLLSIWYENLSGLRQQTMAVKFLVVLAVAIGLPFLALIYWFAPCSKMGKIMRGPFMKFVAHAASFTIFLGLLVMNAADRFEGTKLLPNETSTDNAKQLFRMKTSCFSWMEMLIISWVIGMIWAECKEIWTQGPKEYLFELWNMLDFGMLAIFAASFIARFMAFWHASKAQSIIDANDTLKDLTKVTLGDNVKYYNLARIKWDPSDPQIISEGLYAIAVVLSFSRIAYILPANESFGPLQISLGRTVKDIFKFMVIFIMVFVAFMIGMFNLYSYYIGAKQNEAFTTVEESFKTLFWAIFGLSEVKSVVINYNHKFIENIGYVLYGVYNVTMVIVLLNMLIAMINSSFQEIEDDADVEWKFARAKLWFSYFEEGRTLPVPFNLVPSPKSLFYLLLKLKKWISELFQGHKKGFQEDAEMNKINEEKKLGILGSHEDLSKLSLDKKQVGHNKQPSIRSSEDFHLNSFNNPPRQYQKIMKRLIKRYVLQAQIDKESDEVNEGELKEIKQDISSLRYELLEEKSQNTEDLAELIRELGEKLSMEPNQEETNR
Assay: Evaluation of TRPC6 channel inhibitory activity (1), FLIPR Calcium 5 Assay Kit, OAG stimulation (Compound Nos. 1-1293)
Assay type: cell-based
Settings: Human TRPC6 stably-expressing cells, OAG 30 μM, FLIPR Calcium 5 Assay Kit; read-out: Inhibitory activity (pIC50 class) (converted)
In short: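 Calcium influx read by FLIPR fluorescence in cells stably expressing human TRPC6, dye-loaded 30 min. Compounds preincubated 20 min, then OAG stimulation at 30 μM final. Inhibition fitted by four-parameter logistic regression to give pIC50, reported as +/++/+++ categories.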

SMILES | IC50
Cc1cc(Oc2cc(C#N)ccc2-c2ccc(C[C@H](N)C(=O)O)cn2)cc(N2CCOCC2)n1 [compound 611, (2S)-2-amino-3-[6-[4-cyano-2-(2-methyl-6-morpholin-4-ylpyridin-4-yl)oxyphenyl]pyridin-3-yl]propanoic acid] | > 1000 nM
Cc1cc(Oc2cc(C#N)ccc2-c2ccc(CCN)cc2)cc(N2CCOCC2)n1 [Compound 138, 4-[4-(2-aminoethyl)phenyl]-3-(2-methyl-6-morpholin-4-ylpyridin-4-yl)oxybenzonitrile] | < 10 nM
Cc1nc(Oc2cc(C#N)ccc2-n2cc([C@@H](O)CN)cn2)cc(N2CCC(C(F)(F)F)CC2)n1 [Compound 253, 4-[4-[(1R)-2-amino-1-hydroxyethyl]pyrazol-1-yl]-3-[2-methyl-6-[4-(trifluoromethyl)piperidin-1-yl]pyrimidin-4-yl]oxybenzonitrile] | < 10 nM
N#Cc1ccc(-c2ncc(CN)cn2)c(C(=O)c2cnc(N3CCOCC3)o2)c1 [compound 1082, 4-[5-(aminomethyl)pyrimidin-2-yl]-3-(2-morpholin-4-yl-1,3-oxazole-5-carbonyl)benzonitrile] | > 1000 nM
Cc1nc(Oc2cc(C#N)ccc2-c2ccc([C@H](O)CN)cn2)cc(N2CCO[C@@H](C)C2)n1 [compound 558, 4-[5-[(1S)-2-amino-1-hydroxyethyl]pyridin-2-yl]-3-[2-methyl-6-[(2S)-2-methylmorpholin-4-yl]pyrimidin-4-yl]oxybenzonitrile] | 10 to 1000 nM
Cn1nc(-c2ccccn2)cc1Oc1cc(C#N)ccc1-c1cc(CN)cn2ccnc12 [compound 737, 4-[6-(aminomethyl)imidazo[1,2-a]pyridin-8-yl]-3-(2-methyl-5-pyridin-2-ylpyrazol-3-yl)oxybenzonitrile] | < 10 nM
Cn1nc(N2CCOCC2)cc1C(=O)c1cc(F)ccc1-c1ncc(CCN)cn1 [compound 1107, [2-[5-(2-aminoethyl)pyrimidin-2-yl]-5-fluorophenyl]-(2-methyl-5-morpholin-4-ylpyrazol-3-yl)methanone] | < 10 nM
Cn1nc(N2CCCCC2)cc1Cc1cc(C#N)ccc1-c1ccc(CCN)cn1 [compound 1219, 4-[5-(2-aminoethyl)pyridin-2-yl]-3-[(2-methyl-5-piperidin-1-ylpyrazol-3-yl)methyl]benzonitrile] | < 10 nM
Cc1nc(Oc2cc(C#N)ccc2-c2ccc(C(O)CN)c(Cl)c2)cc(N2CCOCC2)n1 (stereo not shown) [Compound 150, 4-[4-(2-amino-1-hydroxyethyl)-3-chlorophenyl]-3-(2-methyl-6-morpholin-4-ylpyrimidin-4-yl)oxybenzonitrile] | < 10 nM
CN(C)c1cc(Oc2cc(F)ccc2-c2ccc(CN)cn2)n(C)n1 [compound 998, 5-[2-[5-(aminomethyl)pyridin-2-yl]-5-fluorophenoxy]-N,N,1-trimethylpyrazole-3-amine] | 10 to 1000 nM
Cc1nc(Oc2cc(C#N)ccc2-c2ccc(CCN)cc2)cc(OC2CCCC2)n1 [Compound 45, 4-[4-(2-aminoethyl)phenyl]-3-(6-cyclopentyloxy-2-methylpyrimidin-4-yl)oxybenzonitrile] | 10 to 1000 nM
Cc1cc(Oc2cc(C#N)ccc2-c2ccc(CC3(N)COC3)cn2)cc(N2CCOCC2)n1 [compound 562, 4-[5-[(3-aminooxetan-3-yl)methyl]pyridin-2-yl]-3-(2-methyl-6-morpholin-4-ylpyridin-4-yl)oxybenzonitrile] | < 10 nM
CCN(CC)C(=O)C(N)c1ccc(-c2ccc(C#N)cc2Oc2cc(C3CC3)nn2C)nc1 (stereo not shown) [compound 488, 2-amino-2-[6-[4-cyano-2-(5-cyclopropyl-2-methylpyrazol-3-yl)oxyphenyl]pyridin-3-yl]-N,N-diethylacetamide] | > 1000 nM
Cn1nc(-c2ccccc2)cc1Oc1cc(C#N)ccc1-c1nnc(CN)s1 [compound 583, 4-[5-(aminomethyl)-1,3,4-thiadiazol-2-yl]-3-(2-methyl-5-phenylpyrazol-3-yl)oxybenzonitrile] | > 1000 nM

Other lines, results leading:

IC50 | SMILES
> 1000 nM | Cn1nc(C2CC2)cc1Oc1cc(C#N)ccc1-c1ccc(N)cn1 [compound 416, 4-(5-aminopyridin-2-yl)-3-(5-cyclopropyl-2-methylpyrazol-3-yl)oxybenzonitrile]
< 10 nM | CN(c1cc(C#N)ccc1-c1ncc(CCN)cn1)c1cc(-c2ccccc2)nn1C [Compound 6, 4-[5-(2-Aminoethyl)pyrimidin-2-yl]-3-[methyl-(2-methyl-5-phenylpyrazol-3-yl)amino]benzonitrile]
< 10 nM | CCN(CC)c1cc(Oc2cc(F)ccc2-c2ncc(CCN)cn2)n(C)n1 [compound 972, 5-[2-[5-(2-aminoethyl)pyrimidin-2-yl]-5-fluorophenoxy]-N,N-diethyl-1-methylpyrazole-3-amine]
10 to 1000 nM | Cn1nc(N)cc1Oc1cc(C#N)ccc1-c1ccc(CCN)cn1 [compound 577, 4-[5-(2-aminoethyl)pyridin-2-yl]-3-(5-amino-2-methylpyrazol-3-yl)oxybenzonitrile]
10 to 1000 nM | CCNc1cc(Oc2cc(C#N)ccc2-c2ncc(CN)cn2)nc(C)n1 [compound 631, 4-[5-(aminomethyl)pyrimidin-2-yl]-3-[6-(ethylamino)-2-methylpyrimidin-4-yl]oxybenzonitrile]
10 to 1000 nM | Cn1nc(-c2nccs2)cc1Oc1cc(C#N)ccc1-c1ncc([C@H](O)CN)cn1 [compound 574, 4-[5-[(1S)-2-amino-1-hydroxyethyl]pyrimidin-2-yl]-3-[2-methyl-5-(1,3-thiazol-2-yl)pyrazol-3-yl]oxybenzonitrile]
10 to 1000 nM | N#Cc1ccc(-c2ncc(CCN)cn2)c(Oc2nnc(N3CC(F)C3)s2)c1 [compound 722, 4-[5-(2-aminoethyl)pyrimidin-2-yl]-3-[[5-(3-fluoroazetidin-1-yl)-1,3,4-thiadiazol-2-yl]oxy]benzonitrile]
< 10 nM | CC(C)Cn1cc(Oc2cc(C#N)ccc2-c2ncc(CCN)cn2)cn1 [compound 907, 4-[5-(2-aminoethyl)pyrimidin-2-yl]-3-[1-(2-methylpropyl)pyrazol-4-yl]oxybenzonitrile]
< 10 nM | Cn1nc(C(F)(F)F)cc1Oc1cc(C#N)ccc1-c1ncc(CN)cn1 [Compound No. 811, 4-[5-(Aminomethyl)pyrimidin-2-yl]-3-[2-methyl-5-(trifluoromethyl)pyrazol-3-yl]oxybenzonitrile]
10 to 1000 nM | N#Cc1ccc(-c2ncc(CCN)cn2)c(Sc2nnc(N3CCCCC3)s2)c1 [compound 1270, 4-[5-(2-aminoethyl)pyrimidin-2-yl]-3-[(5-piperidin-1-yl-1,3,4-thiadiazol-2-yl)sulfanyl]benzonitrile]
10 to 1000 nM | N#Cc1ccc(-c2ccc(CCN)cn2)c(C(=O)c2cnc(N3CCOCC3)o2)c1 [compound 1083, 4-[5-(2-aminoethyl)pyridin-2-yl]-3-(2-morpholin-4-yl-1,3-oxazole-5-carbonyl)benzonitrile]
< 10 nM | N#Cc1ccc(-c2ncc(CCN)cn2)c(C(=O)c2sc(N3CCOCC3)nc2C(F)(F)F)c1 [compound 1078, 4-[5-(2-aminoethyl)pyrimidin-2-yl]-3-[2-morpholin-4-yl-4-(trifluoromethyl)-1,3-thiazole-5-carbonyl]benzonitrile]
10 to 1000 nM | Cn1nc(C2CCOCC2)cc1Oc1cc(C#N)ccc1-c1cnc(CCN)cn1 [compound 389, 4-[5-(2-aminoethyl)pyrazin-2-yl]-3-[2-methyl-5-(oxan-4-yl)pyrazol-3-yl]oxybenzonitrile]
10 to 1000 nM | Cc1nnc(N2CCCCC2)cc1Oc1cc(C#N)ccc1-c1ncc(CN)cn1 [compound 821, 4-[5-(aminomethyl)pyrimidin-2-yl]-3-(3-methyl-6-piperidin-1-ylpyridazin-4-yl)oxybenzonitrile]
10 to 1000 nM | Cn1nc(-c2ccccn2)cc1Oc1cc(C#N)ccc1-c1ncc(CNC(C)(C)C)cn1 [compound 664, 4-[5-[(tert-butylamino)methyl]pyrimidin-2-yl]-3-(2-methyl-5-pyridin-2-ylpyrazol-3-yl)oxybenzonitrile]
< 10 nM | CN(C)c1cc(Oc2cc(C#N)ccc2-c2ccc(CCN)cn2)n(C)n1 [compound 543, 4-[5-(2-aminoethyl)pyridin-2-yl]-3-[5-(dimethylamino)-2-methylpyrazol-3-yl]oxybenzonitrile]
10 to 1000 nM | Cn1nc(C2CC2)cc1Oc1cc(C#N)ccc1-c1ncc(C(N)CO)cn1 (stereo not shown) [compound 420, 4-[5-(1-amino-2-hydroxyethyl)pyrimidin-2-yl]-3-(5-cyclopropyl-2-methylpyrazol-3-yl)oxybenzonitrile]
